Values joined by “and” are separate entries in the source; they are usually repeats but may differ in a detail not shown here. Identical values can stand only once. Counter-ions that a name gives are not always drawn.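 Exposure lasted 48 hours, with cells grown in 96-well plates and compounds tested at five concentrations. GI50: concentration for 50% inhibition of growth.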 Active and inactive are the calls of the source. Rule as the data show it: active = GI50 up to about 1.1 µM and inactive = higher.
Assays:
Assay in all cases: DTP human tumour cell line panel, 48 h
[1] = tested on: HOP-92
[2] = tested on: HCT-116
[3] = tested on: SN12C
[4] = tested on: OVCAR-3
[5] = tested on: HT-29
[6] = tested on: A498
[7] = tested on: HCT-15
[8] = tested on: MOLT-4
[9] = tested on: TK-10
[10] = tested on: SF-539
[11] = tested on: UO-31
[12] = tested on: RXF 393
[13] = tested on: BT-549
[14] = tested on: 786-0
[15] = tested on: U-251
[16] = tested on: OVCAR-5
[17] = tested on: MDA-N
[18] = tested on: IGROV-1
[19] = tested on: SR

`Nc1nc(-c2cccnc2)cc(-c2cc(-c3cccnc3)nc(N)n2)n1` was tested, and the GI50 [1] was > 100 µM (inactive), the GI50 [2] was > 100 µM (inactive) and the GI50 [3] was > 100 µM (inactive). The GI50 [4] was > 100 µM (inactive), the GI50 [5] was > 100 µM (inactive) and the GI50 [6] was > 100 µM (inactive). The GI50 [7] was greater than 100 µM, the GI50 [8] was > 100 µM (inactive) and the GI50 [9] was > 100 µM (inactive). For the same compound, the GI50 [10] was > 100 µM (inactive), the GI50 [11] was > 100 µM (inactive) and the GI50 [12] was > 100 µM (inactive). The GI50 [13] was > 100 µM (inactive), the GI50 [14] was > 100 µM (inactive) and the GI50 [15] was > 100 µM (inactive). The GI50 [16] was > 100 µM (inactive), the GI50 [17] was 58.7 µM (inactive) and the GI50 [18] was > 100 µM (inactive). The GI50 [19] was 55.8 µM (inactive).

With `O=[N+]([O-])c1oc2ccc3ccccc3c2c1CCO` the GI50 [1] was 3.5 µM (inactive), the GI50 [2] was 2.29 µM (inactive) and the GI50 [3] was 6.21 µM (inactive). The GI50 [4] was 12.6 µM (inactive), the GI50 [5] was 2.94 µM (inactive) and the GI50 [6] was 0.166 µM (active). For the same compound, the GI50 [7] was 3.56 µM, the GI50 [8] was 1.04 µM (active) and the GI50 [9] was 4.97 µM (inactive). For the same compound, the GI50 [10] was 3.28 µM (inactive), the GI50 [11] was 1.64 µM (inactive) and the GI50 [12] was 1.58 µM (inactive). The GI50 [13] was 2.29 µM (inactive), the GI50 [14] was 5.27 µM (inactive) and the GI50 [15] was 9.44 µM (inactive). The GI50 [16] was 7.23 µM (inactive), the GI50 [17] was 1.77 µM (inactive) and the GI50 [18] was 1.32 µM (inactive). For the same compound, the GI50 [19] was 0.114 µM (active).

In the case of `NC(=O)c1cc2cc(Cl)cc(Cl)c2o/c1=N\c1ccc(F)cc1`, the GI50 [1] is reported as 31.9 µM (inactive), the GI50 [2] is reported as 17.3 µM (inactive) and the GI50 [3] is reported as 16.7 µM (inactive). For the same compound, the GI50 [4] was 21.2 µM (inactive), the GI50 [5] was 29.6 µM (inactive) and the GI50 [6] was 19.4 µM (inactive). The GI50 [7] was 17.3 µM, the GI50 [8] was 12.5 µM (inactive) and the GI50 [9] was 14.3 µM (inactive). For the same compound, the GI50 [11] was 25.8 µM (inactive), the GI50 [12] was 16.8 µM (inactive) and the GI50 [13] was 18.6 µM (inactive). The GI50 [14] was 12.2 µM (inactive), the GI50 [15] was 19.6 µM (inactive) and the GI50 [16] was 19.6 µM (inactive). The GI50 [17] was 22.4 µM (inactive), the GI50 [18] was 26.4 µM (inactive) and the GI50 [19] was 4.08 µM (inactive).

`COc1ccc2cc(NC(=O)N/N=C\c3ccc([N+](=O)[O-])cc3)ccc2c1` was tested, and the GI50 [1] was 39.5 µM (inactive), the GI50 [2] was 53.3 µM (inactive) and the GI50 [3] was 86.3 µM (inactive). For the same compound, the GI50 [4] was 40.5 µM (inactive), the GI50 [5] was 33.5 µM (inactive) and the GI50 [6] was 53 µM (inactive). The GI50 [7] was 48 µM, the GI50 [8] was > 100 µM (inactive) and the GI50 [11] was 17.1 µM (inactive). For the same compound, the GI50 [12] was 20.4 µM (inactive), the GI50 [13] was 27.2 µM (inactive) and the GI50 [14] was 30.5 µM (inactive). The GI50 [15] was 29.9 µM (inactive), the GI50 [16] was 45.9 µM (inactive) and the GI50 [17] was 79.3 µM (inactive). The GI50 [18] was 23.7 µM (inactive) and the GI50 [19] was > 100 µM (inactive).

For `Cc1ccc(/N=N/c2c(O)ccc3ccccc23)cc1`, the GI50 [1] was > 100 µM (inactive), the GI50 [2] was > 100 µM (inactive) and the GI50 [3] was > 100 µM (inactive). The GI50 [4] was 32.4 µM (inactive), the GI50 [5] was > 100 µM (inactive) and the GI50 [6] was > 100 µM (inactive). The GI50 [7] was 64 µM, the GI50 [8] was 46.8 µM (inactive) and the GI50 [9] was > 100 µM (inactive). The GI50 [11] was > 100 µM (inactive), the GI50 [12] was > 100 µM (inactive) and the GI50 [13] was > 100 µM (inactive). The GI50 [14] was > 100 µM (inactive), the GI50 [15] was 53.6 µM (inactive) and the GI50 [16] was > 100 µM (inactive). For the same compound, the GI50 [17] was > 100 µM (inactive), the GI50 [18] was > 100 µM (inactive) and the GI50 [19] was 11.7 µM (inactive).

In the case of `COc1ccc(Cc2nccc3cc(OC)c(OC)cc23)cc1OC` [PAPAVERINE HYDROCHLORIDE], the GI50 [1] is reported as 36.5 µM (inactive), the GI50 [2] is reported as 39.3 µM (inactive) and the GI50 [3] is reported as > 100 µM (inactive). The GI50 [4] was > 100 µM (inactive), the GI50 [5] was 41.3 µM (inactive) and the GI50 [6] was 77.3 µM (inactive). For the same compound, the GI50 [7] was 87.3 µM, the GI50 [8] was 47.8 µM (inactive) and the GI50 [9] was > 100 µM (inactive). The GI50 [10] was 76 µM (inactive), the GI50 [11] was 78.7 µM (inactive) and the GI50 [13] was 53.8 µM (inactive). The GI50 [14] was > 100 µM (inactive), the GI50 [15] was > 100 µM (inactive) and the GI50 [16] was > 100 µM (inactive). For the same compound, the GI50 [17] was 94 µM (inactive), the GI50 [18] was > 100 µM (inactive) and the GI50 [19] was 19.2 µM (inactive).

`COc1cc(-c2c(C(C)=O)c(-c3ccccc3)n(C3OC(COC(C)=O)C(OC(C)=O)C(OC(C)=O)C3OC(C)=O)c(=S)c2C#N)ccc1O` (stereo not given) was tested, and the GI50 [1] was 36.6 µM (inactive), the GI50 [2] was 70.8 µM (inactive) and the GI50 [3] was > 100 µM (inactive). For the same compound, the GI50 [5] was 76.6 µM (inactive) and 76.9 µM (inactive), the GI50 [6] was > 100 µM (inactive) and the GI50 [7] was greater than 100 µM. For the same compound, the GI50 [8] was 58.9 µM (inactive) and 60.1 µM (inactive), the GI50 [11] was > 100 µM (inactive) and 55.1 µM (inactive) and the GI50 [12] was > 100 µM (inactive) and 78.5 µM (inactive). For the same compound, the GI50 [13] was 33.1 µM (inactive), the GI50 [14] was > 100 µM (inactive) and the GI50 [15] was > 100 µM (inactive). For the same compound, the GI50 [16] was > 100 µM (inactive), the GI50 [17] was 33 µM (inactive) and 49.8 µM (inactive) and the GI50 [19] was > 100 µM (inactive).

For `CC(=O)Nc1nc(Cl)cc(NCC2(CO)CCC2)n1`, the GI50 [1] was > 100 µM (inactive), the GI50 [2] was > 100 µM (inactive) and the GI50 [3] was > 100 µM (inactive). For the same compound, the GI50 [4] was > 100 µM (inactive), the GI50 [5] was > 100 µM (inactive) and the GI50 [6] was > 100 µM (inactive). For the same compound, the GI50 [7] was greater than 100 µM, the GI50 [8] was > 100 µM (inactive) and the GI50 [11] was > 100 µM (inactive). For the same compound, the GI50 [12] was > 100 µM (inactive), the GI50 [13] was > 100 µM (inactive) and the GI50 [14] was > 100 µM (inactive). For the same compound, the GI50 [15] was > 100 µM (inactive), the GI50 [16] was > 100 µM (inactive) and the GI50 [17] was > 100 µM (inactive). For the same compound, the GI50 [18] was > 100 µM (inactive) and the GI50 [19] was > 100 µM (inactive).

For `O=C1C(O)=C(C(CCc2ccccc2)C2=C(O)C(=O)c3ccccc3C2=O)C(=O)c2ccccc21`, the GI50 [1] was 40 µM (inactive), the GI50 [2] was 40 µM (inactive) and the GI50 [3] was 56 µM (inactive). The GI50 [4] was 30.7 µM (inactive), the GI50 [5] was 18.8 µM (inactive) and the GI50 [6] was 76.4 µM (inactive). The GI50 [7] was 40.9 µM, the GI50 [9] was > 100 µM (inactive) and the GI50 [10] was 58.5 µM (inactive). For the same compound, the GI50 [11] was > 100 µM (inactive), the GI50 [12] was > 100 µM (inactive) and the GI50 [13] was > 100 µM (inactive). The GI50 [14] was > 100 µM (inactive), the GI50 [15] was 45.6 µM (inactive) and the GI50 [16] was > 100 µM (inactive). The GI50 [17] was 16.2 µM (inactive), the GI50 [18] was 34.6 µM (inactive) and the GI50 [19] was 16.9 µM (inactive).

With `C[C@@H]1CCC2[C@@H](C)[C@@H](OCCO[C@H]3OC4O[C@@]5(C)CCC6[C@H](C)CCC([C@H]3C)[C@@]46OO5)OC3O[C@@]4(C)CCC1[C@]32OO4` (stereo not given in full) the GI50 [1] was 2.64 µM (inactive), the GI50 [2] was 0.0251 µM (active) and the GI50 [3] was 0.541 µM (active). For the same compound, the GI50 [5] was 0.05 µM (active), the GI50 [6] was 1.92 µM (inactive) and the GI50 [7] was 0.0238 µM. For the same compound, the GI50 [8] was 0.0483 µM (active), the GI50 [9] was 0.206 µM (active) and the GI50 [10] was 0.202 µM (active). For the same compound, the GI50 [11] was 0.201 µM (active), the GI50 [12] was 0.94 µM (active) and the GI50 [13] was 0.883 µM (active). The GI50 [14] was 0.361 µM (active), the GI50 [15] was 0.0902 µM (active) and the GI50 [16] was 0.0826 µM (active). For the same compound, the GI50 [17] was 0.219 µM (active), the GI50 [18] was 0.0652 µM (active) and the GI50 [19] was 0.0345 µM (active).

`CC1(C)N=C(N)N=C(N)N1c1cccc(Cl)c1` was tested, and the GI50 [1] was 42.5 µM (inactive), the GI50 [2] was 0.461 µM (active) and the GI50 [3] was 10.3 µM (inactive). For the same compound, the GI50 [4] was 22.4 µM (inactive), the GI50 [5] was 0.785 µM (active) and the GI50 [6] was > 100 µM (inactive). For the same compound, the GI50 [7] was 10.5 µM, the GI50 [9] was 91.2 µM (inactive) and the GI50 [10] was 4.66 µM (inactive). For the same compound, the GI50 [11] was 15.5 µM (inactive), the GI50 [12] was > 100 µM (inactive) and the GI50 [13] was 6.71 µM (inactive). For the same compound, the GI50 [14] was 0.585 µM (active), the GI50 [15] was 1.36 µM (inactive) and the GI50 [16] was 9.12 µM (inactive). The GI50 [17] was 0.49 µM (active), the GI50 [18] was 4.93 µM (inactive) and the GI50 [19] was 1.73 µM (inactive).

Source: ChEMBL document CHEMBL1201862, “PubChem BioAssay data set” (2004)
